Test results: ChEMBL document CHEMBL6078686, “Synthesis of 1-Hydroxy(and 1-Alkoxy, 1-Acyloxy)-1H-indoles and evaluations of their suppressive activities against tumor growth through inhibiting lactate dehydrogenase A” (Eur J Med Chem, 2025)
Calls of active or inactive are those of the source. The rule behind the calls is not given here.

Tests used:
[1] = Toxicity in male athymic mouse subcutaneously inoculated with human DLD-1 cells assessed as injury/inflammation in liver at 5 to 25 mg/kg abdominally injected daily for 2 weeks after 15 days of tumor injection measured after 2 weeks; type: organism-based; settings: in vivo, 336 h, dose 5-25 mg/kg
[2] = Cytotoxicity against mouse AML12 cells assessed as inhibition of cell growth measured after 48 hrs incubation by MTT assay; type: toxicity, cell-based
[3] = Toxicity in male athymic mouse subcutaneously inoculated with human DLD-1 cells assessed as injury/inflammation in kidney at 5 to 25 mg/kg abdominally injected daily for 2 weeks after 15 days of tumor injection measured after 2 weeks; type: organism-based; settings: in vivo, 336 h, dose 5-25 mg/kg
[4] = tested on: U-87 MG; assay: Cytotoxicity against human U87 cells assessed as inhibition of cell growth measured after 48 hrs incubation by MTT assay; type: functional, U-87MG ATCC
[5] = target: T1, L-lactate dehydrogenase A chain (Homo sapiens, UniProt P00338); assay: Non-competitive inhibition of human recombinant LDHA assessed as ratio of Km/Vmax in presence of pyruvate by measuring NADH fluorescence at 100 nM by Lineweaver-Burk plot analysis
[6] = target: T1, L-lactate dehydrogenase A chain; assay: Non-competitive inhibition of human recombinant LDHA assessed as ratio of Km/Vmax in presence of pyruvate by measuring NADH fluorescence at 25 nM by Lineweaver-Burk plot analysis
[7] = tested on: A549; assay: Cytotoxicity against human A549 cells assessed as inhibition of cell growth measured after 48 hrs incubation by MTT assay; type: functional
[8] = tested on: HeLa; assay: Cytotoxicity against human HeLa cells assessed as inhibition of cell growth measured after 48 hrs incubation by MTT assay; type: functional
[9] = Toxicity in male athymic mouse subcutaneously inoculated with human DLD-1 cells assessed as weight loss at 5 to 25 mg/kg abdominally injected daily for 2 weeks after 15 days of tumor injection measured after 2 weeks; type: organism-based; settings: in vivo, 336 h, dose 5-25 mg/kg
[10] = target: T1, L-lactate dehydrogenase A chain; assay: Inhibition of human recombinant LDHA assessed as conversion of NADH […] at by spectrofluorometry
[11] = tested on: MCF7; assay: Cytotoxicity against human MCF7 cells assessed as inhibition of cell growth measured after 48 hrs incubation by MTT assay; type: functional
[12] = tested on: DLD-1; assay: Cytotoxicity against human DLD-1 cells assessed as inhibition of cell growth measured after 48 hrs incubation by MTT assay; type: functional
[13] = tested on: DLD-1; assay: In vivo tumor suppressor activity against human DLD-1 cells subcutaneously implemented in male athymic mouse model assessed as caspase 3 activation in tumor tissue at 25 mg/kg abdominally injected daily for 2 weeks after 15 days of tumor injection measured after 2 weeks; type: functional, organism-based
[14] = tested on: PANC-1; assay: Cytotoxicity against human PANC-1 cells assessed as inhibition of cell growth measured after 48 hrs incubation by MTT assay; type: functional
[15] = Cytotoxicity against human T HESCs cells assessed as inhibition of cell growth measured after 48 hrs incubation by MTT assay; type: toxicity, cell-based
[16] = target: T1, L-lactate dehydrogenase A chain; assay: Inhibition of intracellular LDHA activity in human DLD-1 cell lysate assessed as conversion of NADH […] by spectrofluorometry; type: subcellular
[17] = tested on: DLD-1; assay: In vivo tumor suppressor activity against human DLD-1 cells subcutaneously implemented in male athymic mouse model assessed as reduction in tumor weight at 5 to 25 mg/kg abdominally injected daily for 2 weeks after 15 days of tumor injection measured after 2 weeks; type: functional, organism-based; settings: dose 5-25 mg/kg
[18] = tested on: DLD-1; assay: Induction of apoptosis in human DLD-1 cells assessed as caspase 9 at 20 to 40 uM measured after 48 hrs by Western blot analysis; type: functional, cell-based; settings: dose 20-40 µM
[19] = tested on: DLD-1; assay: Induction of apoptosis in human DLD-1 cells assessed as caspase 3 at 20 to 40 uM measured after 48 hrs by Western blot analysis; type: functional, cell-based; settings: dose 20-40 µM
[20] = Cytotoxicity against mouse Hepa1-6 cells assessed as inhibition of cell growth measured after 48 hrs incubation by MTT assay; type: toxicity, cell-based, Hepa 1-6
[21] = tested on: DLD-1; assay: Induction of apoptosis in human DLD-1 cells assessed as PARP at 20 to 40 uM measured after 48 hrs by Western blot analysis; type: functional, cell-based; settings: dose 20-40 µM
[22] = tested on: DLD-1; assay: In vivo tumor suppressor activity against human DLD-1 cells subcutaneously implemented in male athymic mouse model assessed as reduction in tumor volume at 5 to 25 mg/kg abdominally injected daily for 2 weeks after 15 days of tumor injection measured after 2 weeks; type: functional, organism-based; settings: dose 5-25 mg/kg
[23] = tested on: COC(=O)c1c(COCCc2ccccc2)c2c(Br)cccc2n1OC; assay: Non-competitive inhibition of human recombinant LDHA assessed as Km in presence of pyruvate by measuring NADH fluorescence at 40 nM by Michaelis-Menten analysis
[24] = tested on: COC(=O)c1c(COCCc2ccccc2)c2c(Br)cccc2n1OC; assay: Non-competitive inhibition of human recombinant LDHA assessed as Vmax in presence of pyruvate by measuring NADH fluorescence at 160 nM by Lineweaver-Burk plot analysis
[25] = tested on: COC(=O)c1c(COCCc2ccccc2)c2c(Br)cccc2n1OC; assay: Non-competitive inhibition of human recombinant LDHA assessed as Km in presence of pyruvate by measuring NADH fluorescence at 160 nM by Michaelis-Menten analysis
[26] = tested on: CCCCCCOCc1c(C(=O)OC)n(O)c2cccc(Br)c12; assay: Non-competitive inhibition of human recombinant LDHA assessed as Km in presence of pyruvate by measuring NADH fluorescence at 100 nM by Michaelis-Menten analysis
[27] = tested on: COC(=O)c1c(COCCc2ccccc2)c2c(Br)cccc2n1OC; assay: Non-competitive inhibition of human recombinant LDHA assessed as Vmax in presence of pyruvate by measuring NADH fluorescence at 40 nM by Lineweaver-Burk plot analysis
[28] = tested on: CCCCCCOCc1c(C(=O)OC)n(O)c2cccc(Br)c12; assay: Non-competitive inhibition of human recombinant LDHA assessed as Vmax in presence of pyruvate by measuring NADH fluorescence at 25 nM by Lineweaver-Burk plot analysis
[29] = tested on: CCCCCCOCc1c(C(=O)OC)n(O)c2cccc(Br)c12; assay: Non-competitive inhibition of human recombinant LDHA assessed as Km in presence of pyruvate by measuring NADH fluorescence at 25 nM by Michaelis-Menten analysis
[30] = tested on: CCCCCCOCc1c(C(=O)OC)n(O)c2cccc(Br)c12; assay: Non-competitive inhibition of human recombinant LDHA assessed as Vmax in presence of pyruvate by measuring NADH fluorescence at 100 nM by Lineweaver-Burk plot analysis
[31] = target: T1, L-lactate dehydrogenase A chain; assay: Non-competitive inhibition of human recombinant LDHA assessed as ratio of Km/Vmax in presence of pyruvate by measuring NADH fluorescence at 40 nM by Lineweaver-Burk plot analysis
[32] = target: T1, L-lactate dehydrogenase A chain; assay: Non-competitive inhibition of human recombinant LDHA assessed as ratio of Km/Vmax in presence of pyruvate by measuring NADH fluorescence at 160 nM by Lineweaver-Burk plot analysis

Molecule: CCCCCCOCc1c(C(=O)OC)n(O)c2cccc(Br)c12
- Activity [1]: Non-toxic
- GI50 at 48 h [2]: > 100 µM
- Activity [3]: Non-toxic
- GI50 [4]: 60.9 µM
- Vmax/Km [5]: 0.047
- Vmax/Km [6]: 0.056
- GI50 [7]: 45.6 µM
- GI50 [8]: 39.6 µM
- Activity [9]: Non-toxic
- IC50 [10]: 0.025 µM
- inhibition [10]: Dose-dependent-effect
- GI50 [11]: 31.7 µM
- GI50 [12]: 27 µM
- Activity [13]: Active
- GI50 [14]: 31.4 µM
- GI50 at 48 h [15]: > 100 µM
- IC50 [16]: 11.6 µM
- inhibition [16]: Dose-dependent-effect
- Activity [17]: Active
- Activity [18]: Active
- Activity [19]: Active
- GI50 at 48 h [20]: 49.6 µM
- Activity [21]: Active
- Activity [22]: Active

Molecule: L-lactate dehydrogenase A chain (Homo sapiens) (from UniProt P00338)
- Km [23]: 172 µM
- Vmax [24]: 5.01
- Km [25]: 189 µM
- Km [26]: 170 µM
- Vmax [27]: 5.84
- Vmax [28]: 4.54
- Km [29]: 254 µM
- Vmax [30]: 3.6

Molecule: COC(=O)c1c(COCCc2ccccc2)c2c(Br)cccc2n1OC
- GI50 at 48 h [2]: 85.2 µM
- Vmax/Km [31]: 0.029
- GI50 [4]: 66.7 µM
- Vmax/Km [32]: 0.038
- GI50 [7]: > 100 µM
- GI50 [8]: 83.5 µM
- IC50 [10]: 0.124 µM
- inhibition [10]: Dose-dependent-effect
- GI50 [11]: > 100 µM
- GI50 [12]: > 100 µM
- GI50 [14]: > 100 µM
- GI50 at 48 h [15]: > 100 µM
- inhibition [16]: inactive
- GI50 at 48 h [20]: 56.2 µM

Molecule: COC(=O)c1cc2c(C(F)(F)F)cc(-c3ccccc3)cc2n1O
- GI50 [12]: 106 µM
